{"source": "patent US20180119123A1", "about": "“CRISPR/CAS-RELATED METHODS AND COMPOSITIONS FOR TREATING HIV INFECTION AND AIDS” (EDITAS MEDICINE, INC., priority 2015, published 2018)", "system": "CXCR4 locus", "assay": "T7E1 assay for indels/NHEJ at the CXCR4 locus in Nucleofected CD34+ HSCs", "assay_type": "cell-based, human", "conditions": "40 nM UM171; S. aureus or S. pyogenes Cas9 and CXCR4 gRNA plasmids; 96 hours", "procedure": "For the T7E1 assay, PCR amplicons are approximately 500-700 bp with the intended cut site placed asymmetrically in the amplicon. Following amplification, purification and size-verification of PCR products, DNA is denatured and re-hybridized by heating to 95° C. and then slowly cooling. Hybridized PCR products are then digested with T7 Endonuclease I (or other mismatch-sensitive enzyme) which recognizes and cleaves non-perfectly matched DNA. […] Digestion products may be visualized by gel electrophoresis or by capillary electrophoresis. The fraction of DNA that is cleaved (density of cleavage products divided by the density of cleaved and uncleaved) may be used to estimate a percent NHEJ using the following equation: % NHEJ=(1-(1-fraction cleaved)^1/2). The T7E1 assay is sensitive down to about 2-5% NHEJ.\nHuman CD34^+ HSCs cells from mobilized peripheral blood (AllCells) were thawed into StemSpan Serum-Free Expansion Medium (SFEM, StemCell Technologies) containing 100 ng/mL each of the following cytokines: human stem cell factor (SCF), thrombopoietin (TPO), and flt-3 ligand (FL) (all from Peprotech). […]\nIn order to detect indels at the CXCR4 locus, T7E1 assays were performed on CXCR4 locus-specific PCR products that were amplified from genomic DNA samples from Nucleofected™ CD34^+ HSCs and then calculated the percentage of NHEJ detected at the CXCR4 locus (FIG. 11B).", "note": "“Also recorded” adds a separate entry of the source."}
{"smiles": "Cn1nnc(-c2ccc3c(c2)[nH]c2nc(Cc4ccccc4)nc(N[C@H]4CC[C@H](N)CC4)c23)n1", "note": "[UM171, (1r,4r)-N1-(2-benzyl-7-(2-methyl-2H-tetrazol-5-yl)-9H-pyrimido[4,5-b]indol-4-yl)cyclohexane-1,4-diamine]", "values": [{"measurement": "Percentage of genome editing at the CXCR4 locus with UM171 pre-treatment versus without", "value": "higher percentage of genome editing at the CXCR4 locus; also recorded: increased genome editing at the CXCR4 locus"}]}
